What all share (conditions): pH 7.5
Experiment [1] has as its target T1, Tyrosyl-DNA phosphodiesterase 2 (Mus musculus, UniProt Q9JJX7).
T1 sequence (Q9JJX7 whole entry): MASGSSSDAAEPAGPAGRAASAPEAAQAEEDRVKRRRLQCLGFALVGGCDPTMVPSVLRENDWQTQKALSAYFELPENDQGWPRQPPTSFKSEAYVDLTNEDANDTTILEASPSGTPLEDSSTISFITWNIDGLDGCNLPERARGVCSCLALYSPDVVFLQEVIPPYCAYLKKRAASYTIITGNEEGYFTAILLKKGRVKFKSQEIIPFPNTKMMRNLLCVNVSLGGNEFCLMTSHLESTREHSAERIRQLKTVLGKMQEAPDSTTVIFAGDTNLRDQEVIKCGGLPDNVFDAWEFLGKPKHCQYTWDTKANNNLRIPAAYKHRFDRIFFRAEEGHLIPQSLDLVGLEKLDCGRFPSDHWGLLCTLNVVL
The experiment in a line: Recombinant TDP2 Assay. Here is the method:
(§1) TDP2 reactions were carried out as described previously23 with the following modifications.

For experiment [2], the target named is T2, Tyrosyl-DNA phosphodiesterase 2 [E242G,S244A,Q278R,I281T,K282R,R316G,P318T,Y321CH323L] (Mus musculus, UniProt Q9JJX7, E242G/I281T/K282R/P318T/Q278R/R316G/S244A/Y321CH323L).
T2 sequence (Q9JJX7 whole entry): T1 sequence (Q9JJX7 whole entry) with E242G, S244A, Q278R, I281T, K282R, R316G, P318T, Y321C, H323L
The experiment in a line: Recombinant TDP2 Assay. Here is the method: as §1

The target of experiment [3] is Tyrosyl-DNA phosphodiesterase 2 [E242G,S244A,Q278R,I281T,K282R,R316G,P318T,Y321C] (Mus musculus, UniProt Q9JJX7, E242G/I281T/K282R/P318T/Q278R/R316G/S244A/Y321C). Kind of experiment: Recombinant TDP2 Assay. The procedure:
as §1

Experiment [4] addresses T3, Tyrosyl-DNA phosphodiesterase 2 (Homo sapiens, UniProt O95551).
T3 sequence (O95551 whole entry): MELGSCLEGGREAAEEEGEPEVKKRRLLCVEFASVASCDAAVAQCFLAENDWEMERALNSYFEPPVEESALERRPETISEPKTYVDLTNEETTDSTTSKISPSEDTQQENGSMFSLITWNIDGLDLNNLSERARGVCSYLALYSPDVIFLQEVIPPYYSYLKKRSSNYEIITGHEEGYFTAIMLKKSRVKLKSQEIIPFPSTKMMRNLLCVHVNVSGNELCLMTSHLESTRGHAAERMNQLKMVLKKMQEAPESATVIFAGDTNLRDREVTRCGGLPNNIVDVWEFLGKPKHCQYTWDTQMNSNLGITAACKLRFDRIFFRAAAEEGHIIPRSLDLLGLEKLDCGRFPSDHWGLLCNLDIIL
The experiment in a line: Recombinant TDP2 Assay. Here is the method: as §1

In experiment [5] the target is T3, Tyrosyl-DNA phosphodiesterase 2. Kind of experiment: TDP2 Assays with Whole Cell Extracts. Here is the method: Cell pellets were then resuspended in 100 uL of CelLytic M cell lysis reagent (SIGMA-Aldrich C2978). After 15 min on ice, lysates were centrifuged at 12 000g for 10 min, and supernatants were transferred to a new tube. Protein concentrations were determined using a Nanodrop spectrophotometer (Invitrogen), and whole cell extracts were stored at -80 °C. […] Reactions were terminated and samples analyzed.

Each structure is given as a SMILES string. Residue numbers refer to the chain shown, from its start.

What is called IC50 is the concentration needed to halve the response being measured.

Chain of Tyrosyl-DNA phosphodiesterase 2 [E242G,S244A,Q278R,I281T,K282R,R316G,P318T,Y321C] (Q9JJX7 whole entry E242G/S244A/Q278R/I281T/K282R/R316G/P318T/Y321C): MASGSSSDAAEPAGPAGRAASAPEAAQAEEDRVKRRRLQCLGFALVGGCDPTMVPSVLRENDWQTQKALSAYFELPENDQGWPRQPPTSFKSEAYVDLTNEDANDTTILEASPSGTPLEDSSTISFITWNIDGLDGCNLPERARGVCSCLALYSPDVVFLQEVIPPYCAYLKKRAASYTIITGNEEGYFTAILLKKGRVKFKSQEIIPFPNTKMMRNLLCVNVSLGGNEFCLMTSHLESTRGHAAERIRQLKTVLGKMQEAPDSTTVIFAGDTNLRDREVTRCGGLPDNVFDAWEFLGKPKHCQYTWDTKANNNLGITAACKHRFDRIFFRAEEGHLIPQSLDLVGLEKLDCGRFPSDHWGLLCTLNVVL

Turning to `N#Cc1ccc2cc3c(=O)[nH]c(=O)nc-3n(-c3ccc(O)cc3)c2c1`, the results for the IC50 in experiment [1], in experiment [2] and in experiment [3] were greater than 111 µM, 0.17 µM and 1.1 µM, respectively.
Regarding `O=c1nc2n(-c3ccc(O)cc3)c3cc(Cl)ccc3cc-2c(=O)[nH]1`, the IC50 in experiment [4] is 3.9 µM; in experiment [1] it was greater than 111 µM; in experiment [2], 4 µM; in experiment [3] it was 35 µM; in experiment [5] it was 2.3 µM.

Source of the values: BindingDB's records for doi:10.1021/acschembio.5b01047 (National Institutes of Health, 2016).
